Assay results: patent publication US8445689B2, “Pesticides” (Dow AgroSciences, LLC., priority 2008, dated 2013)
Read-outs that look alike come from different tables or passages of the source.

Tests used:
[1] = test system: Green Peach Aphid (Myzus persicae); test: Insecticidal test for green peach aphid in foliar spray assay on cabbage; type: in vivo; settings: 72 h, read-out: Rating against green peach aphid on cabbage (foliar spray)
Method: Compounds 1-67 were tested against green peach aphid using procedures described hereinafter.
Insecticidal Test for Green Peach Aphid (Myzus persicae) in Foliar Spray Assay
Cabbage seedlings grown in 3-inch pots, with 2-3 small (3-5 cm) true leaves, were used as test substrate. The seedlings were infested with 20-50 green peach aphids (wingless adult and nymph) 1-2 d prior to chemical application. Four seedlings were used for each treatment. Compounds (2 mg) were dissolved in 2 mL of acetone-methanol (1:1) solvent, forming stock solutions of 1000 ppm. The stock solutions were diluted 5× with 0.025% Tween 20 in H2O to obtain a solution at 200 ppm. A hand-held Devilbiss aspirator sprayer was used for spraying a solution to both sides of cabbage leaves until runoff. Reference plants (solvent check) were sprayed with the diluent only. Treated plants were held in a holding room for 3 d at approximately 23° C. and 40% RH prior to grading. Evaluation was conducted by counting the number of live aphids per plant under a microscope. Insecticidal activity was measured by using Abbott's correction formula: Corrected % Control=100*(X−Y)/X • where X=No. of live aphids on solvent check plants • Y=No. of live aphids on treated plants

[2] = 200 ppm foliar spray on cabbage seedlings, graded after 3 d, corrected % control (Abbott)

| SMILES | melting point [°C] | pest or weed control at 200 ppm ([1]; foliar) [%] | pest or weed control at 200 ppm [1, 2] [%] |
| --- | --- | --- | --- |
| CS(=O)(Cc1ccc(Cl)nc1)=NC(=S)NC(=O)OCC1c2ccccc2-c2ccccc21 (stereo not shown) [Compound 30, 9H-Fluoren-9-ylmethyl{[[(6-chloropyridin-3-yl)methyl](methyl)oxido-λ^4-sulfanylidene]amino}carbonothioylcarbamate] | 98 to 101 | < 80 | – |
| CC(C)NC(=S)N=S(C)(=O)C(C)c1ccc(C(F)(F)F)nc1 (stereo not shown) [Compound 14] | 153 to 155 | – | 80 to 100 |
| CS(=O)(Cc1ccc(C(F)(F)F)nc1)=NC(=S)NC(=O)OCC1c2ccccc2-c2ccccc21 (stereo not shown) [Compound 28, 9H-Fluoren-9-ylmethyl[(methyl(oxido){[6-(trifluoromethyl)pyridin-3-yl]methyl}-λ^4-sulfanylidene)amino]carbonothioylcarbamate] | 92 to 97 | < 80 | – |
| CC(c1ccc(C(F)(F)F)nc1)S(C)(=O)=NC(=S)NC(=O)OCC1c2ccccc2-c2ccccc21 (stereo not shown) [Compound 9] | 105 to 107 | 80 to 100 | – |
| CC(c1ccc(C(F)(F)F)nc1)S(C)(=O)=NC(=S)NC1CCCCC1 (stereo not shown) [Compound 7] | 170 to 172 | – | 80 to 100 |
| CC(c1ccc(C(F)(F)F)cc1)S(C)(=O)=NC(=S)NC(=O)OCC1c2ccccc2-c2ccccc21 (stereo not shown) [Compound 34, 9H-Fluoren-9-ylmethyl[(methyl(oxido){1-[4-(trifluoromethyl)phenyl]-ethyl}-λ^4-sulfanylidene)amino]carbonothioylcarbamate] | 86 to 93 | < 80 | – |

Second part, led by results:

| melting point [°C] | SMILES | pest or weed control at 200 ppm ([1]; foliar) [%] | pest or weed control at 200 ppm [1, 2] [%] |
| --- | --- | --- | --- |
| 137 to 140 | Cc1ccc(C(C)S(C)(=O)=NC(N)=S)cn1 (stereo not shown) [Compound 33, N-{methyl[1-(6-methylpyridin-3-yl)ethyl]oxido-λ^4-sulfanylidene}-thiourea] | – | 80 to 100 |
| 166 to 168 | CC(c1ccc(C(F)(F)F)cc1)S(C)(=O)=NC(N)=S (stereo not shown) [Compound 35, N-(methyl(oxido){1-[4-(trifluoromethyl)phenyl]ethyl}-λ^4-sulfanylidene)thiourea] | – | < 80 |
| 181 to 183 | CC(c1ccc(C(F)(F)F)nc1)S(C)(=O)=NC(=S)Nc1ccc(Cl)cc1 (stereo not shown) [Compound 20] | – | < 80 |
| 131 to 133 | COC(=O)CCC(=O)NC(=S)N=S(C)(=O)C(C)c1ccc(C(F)(F)F)nc1 (stereo not shown) [Compound 37, methyl 4-({[(methyl(oxido){1-[6-(trifluoromethyl)pyridin-3-yl]ethyl}-λ^4-sulfanylidene)amino]carbonothioyl}amino)-4-oxobutanoate] | – | 80 to 100 |
| 156 to 158 | CS(=O)(Cc1ccc(Cl)nc1)=N/C(N)=N/O (stereo not shown) [Compound 39, N-[[(6-chloropyridin-3-yl)methyl](methyl)oxido-λ^4-sulfanylidene]-N″-hydroxyguanidine] | – | 80 to 100 |
| 145 to 147 | CC(c1ccc(C(F)(F)F)nc1)S(C)(=O)=NC(N)=S (stereo not shown) [Compound 22, N-(methyl(oxido){1-[6-(trifluoromethyl)pyridin-3-yl]ethyl}-λ^4-sulfanylidene)thiourea] | – | 80 to 100 |
| 154 to 156 | CC(c1ccc(C(F)(F)F)nc1)S(C)(=O)=NC(=S)NC1CC1 (stereo not shown) [Compound 15] | – | 80 to 100 |
| 155 to 158 | CS(=O)(Cc1ccc(Cl)nc1)=NC(N)=S (stereo not shown) [Compound 31, N-[[(6-chloropyridin-3-yl)methyl](methyl)oxido-λ^4-sulfanylidene]thiourea] | – | 80 to 100 |
